{"source": "paper PMC7248975", "about": "“Sigma-1 Receptor Positron Emission Tomography: A New Molecular Imaging Approach Using (S)-(−)-[^18F]Fluspidine in Glioblastoma” (Molecules, 2020)", "key": {"sigma-1 receptor (sig1R) [1]": {"target": "T1, sigma-1 receptor (sig1R) (Homo sapiens, UniProt Q99720)", "T1 construct": "gene SIGMAR1; U87-MG cells", "T1 sequence (Q99720 whole entry)": "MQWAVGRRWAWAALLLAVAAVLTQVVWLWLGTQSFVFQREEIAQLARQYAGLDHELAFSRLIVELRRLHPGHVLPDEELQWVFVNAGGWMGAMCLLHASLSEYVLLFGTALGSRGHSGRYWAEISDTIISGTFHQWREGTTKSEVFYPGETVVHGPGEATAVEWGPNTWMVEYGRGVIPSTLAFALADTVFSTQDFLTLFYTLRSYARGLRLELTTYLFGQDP", "experiment": "radioligand binding and displacement of (+)-[3H]pentazocine in U87-MG cells; autoradiography of tumour"}, "sigma-1 receptor (sig1R) [2]": {"target": "T2, sigma-1 receptor (sig1R) (Mus musculus, UniProt O55242)", "T2 construct": "gene Sigmar1; mouse brain cryosections, contralateral striatum", "T2 sequence (O55242 whole entry)": "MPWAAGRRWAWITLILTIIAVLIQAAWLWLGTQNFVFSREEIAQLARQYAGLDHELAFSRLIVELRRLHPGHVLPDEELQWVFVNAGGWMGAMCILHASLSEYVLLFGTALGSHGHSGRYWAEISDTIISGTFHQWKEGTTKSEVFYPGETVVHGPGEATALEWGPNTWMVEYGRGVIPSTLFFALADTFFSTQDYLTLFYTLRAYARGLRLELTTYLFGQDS", "experiment": "homologous radioligand displacement by autoradiography; PET in sig1R-knockout vs control mice"}}, "data": [{"smiles": "FCC[C@@H]1OC2(CCN(Cc3ccccc3)CC2)c2ccccc21", "note": "[(S)-(−)-[^18F]fluspidine]", "values": [{"measurement": "Kd", "setting": "sigma-1 receptor (sig1R) [1]", "result": 0.0167, "unit": "µM"}, {"measurement": "Kd", "setting": "sigma-1 receptor (sig1R) [2]", "result": "0.017 ± 0.0048", "unit": "µM"}]}]}
